Results as given in paper PMC2924936 (ACS chemical biology, 2010).
Read-outs that look alike come from different tables or passages of the source.

Columns and labels:
[1] = target: T1, yeast NADPH-cytochrome P450 reductase (yCPR) (Saccharomyces cerevisiae, UniProt P16603); assay: SPR; assay type: binding
T1 sequence (P16603 34-691): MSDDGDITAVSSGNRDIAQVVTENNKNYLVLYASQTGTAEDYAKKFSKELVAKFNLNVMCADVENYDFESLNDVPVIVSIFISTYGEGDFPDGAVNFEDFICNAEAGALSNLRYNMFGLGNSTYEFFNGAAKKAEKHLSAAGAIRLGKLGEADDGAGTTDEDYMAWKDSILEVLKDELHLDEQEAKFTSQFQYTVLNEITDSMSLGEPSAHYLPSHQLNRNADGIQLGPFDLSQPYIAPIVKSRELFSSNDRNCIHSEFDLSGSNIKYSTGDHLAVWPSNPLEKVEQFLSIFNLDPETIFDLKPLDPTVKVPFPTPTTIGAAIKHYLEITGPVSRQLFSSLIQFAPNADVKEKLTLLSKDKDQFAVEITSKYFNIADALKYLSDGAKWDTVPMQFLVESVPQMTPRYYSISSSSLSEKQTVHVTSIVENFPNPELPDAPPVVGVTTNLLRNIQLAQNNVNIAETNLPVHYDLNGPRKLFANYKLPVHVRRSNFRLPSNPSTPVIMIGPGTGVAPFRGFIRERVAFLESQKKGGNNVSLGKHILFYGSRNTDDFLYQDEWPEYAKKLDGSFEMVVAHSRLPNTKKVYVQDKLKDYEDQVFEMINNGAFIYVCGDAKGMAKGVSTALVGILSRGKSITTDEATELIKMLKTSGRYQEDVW

[2] = target: T1, yeast NADPH-cytochrome P450 reductase (yCPR); assay: SPR; assay type: binding; remark: listed apart in the source

Structure (SMILES) | Kd [1] [nM] | Kd [2] [nM]
Cc1cc2nc3c(=O)[nH]c(=O)nc-3n(C[C@H](O)[C@H](O)[C@H](O)COP(=O)(O)OP(=O)(O)OC[C@H]3O[C@@H](n4cnc5c(N)ncnc54)[C@H](O)[C@@H]3O)c2cc1C [compound 8, FAD] | 2300 | 
Cc1cc2nc3c(=O)[nH]c(=O)nc-3n(C[C@H](O)[C@H](O)[C@H](O)COP(=O)(O)O)c2cc1C [compound 7, FMN] |  | 300
